From patent US6599900B2, “1-oxa-3,9-diaza-spiro[5,5]undecan-2-ones” (Syntex (U.S.A.) LLC, priority 2001, dated 2003)
pKi: −log10 of the molar value. Structures can show the parent of a compound that is named as a salt.

Target: T1, human NK1 receptor (Homo sapiens, UniProt P25103)
T1 construct: expressed in transfected cells; host or cells: CHO cells infected with the Semliki virus expression system; membrane suspension used
Assay: [3H]substance P binding at human NK1 receptors in CHO cells
Details: affinity to the NK-1 receptor; [3H]substance P 0.6 nM displacement, CHO cell membranes, 60 min at room temperature
Protocol: The affinity of test compounds for the NK1 receptor was evaluated at human NK1 receptors in CHO cells infected with the human NK1 receptor (using the Semliki virus expression system) and radiolabelled with [^3H]substance P (final concentration 0.6 nM). Binding assays were performed in HEPES buffer (50 mM, pH 7.4) containing BSA (0.04%) leupeptin (8 μg/ml), MnCl2 (3 mM) and phosphoramidon (2 μM). Binding assays consisted of 250 μl of membrane suspension (1.25×10^5 cells/assay tube), […] of buffer of displacing agent and 125 μl of [^3H]substance P. Displacement curves were determined with at least seven concentrations of the compound. The assay tubes were incubated for 60 min at room temperature after which time the tube contents were rapidly filtered under vacuum through GF/C filters presoaked for 60 min with PEI (0.3%) with 2×2 ml washes of HEPES buffer (50 mM, pH 7.4). The radioactivity retained on the filters was measured by scintillation counting. All assays were performed in triplicate in at least 2 separate experiments.

T1 sequence (P25103 whole entry): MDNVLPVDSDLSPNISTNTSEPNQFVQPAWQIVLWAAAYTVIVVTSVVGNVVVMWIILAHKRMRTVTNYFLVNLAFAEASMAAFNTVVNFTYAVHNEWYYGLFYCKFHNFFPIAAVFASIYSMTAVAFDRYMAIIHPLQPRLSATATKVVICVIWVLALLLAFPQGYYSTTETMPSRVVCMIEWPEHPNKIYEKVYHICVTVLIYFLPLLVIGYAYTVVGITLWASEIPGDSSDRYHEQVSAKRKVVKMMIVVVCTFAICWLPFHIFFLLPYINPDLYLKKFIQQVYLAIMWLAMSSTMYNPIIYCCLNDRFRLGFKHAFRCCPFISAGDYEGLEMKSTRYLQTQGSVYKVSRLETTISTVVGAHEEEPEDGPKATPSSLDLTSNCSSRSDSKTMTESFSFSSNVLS

Compound	pKi
O=C1NCC(c2cccc(Cl)c2)C2(CCN(C(=O)c3cc(C(F)(F)F)cc(C(F)(F)F)c3)CC2)O1 (racemic) [Example 1, (5RS)-9-(3,5-bis-trifluoromethyl-benzoyl)-5-(3-chloro-phenyl)-1-oxa-3,9-diaza-spiro[5.5]undecan-2-one]	8.29
O=C1NCC(c2ccc(F)c(F)c2)C2(CCN(C(=O)c3cc(C(F)(F)F)cc(C(F)(F)F)c3)CC2)O1 (racemic) [Example 2, (5RS)-9-(3,5-bis-trifluoromethyl-benzoyl)-5-(3,4-difluoro-phenyl)-1-oxa-3,9-diaza-spiro[5.5]undecan-2-one]	8.77
O=C1NCC(c2ccc(Cl)c(Cl)c2)C2(CCN(C(=O)c3cc(C(F)(F)F)cc(C(F)(F)F)c3)CC2)O1 (racemic) [Example 3, (5RS)-9-(3,5-bis-trifluoromethyl-benzoyl)-5-(3,4-dichloro-phenyl)-1-oxa-3,9-diaza-spiro[5.5]undecan-2-one]	8.58
O=C1NCC(c2ccccc2)C2(CCN(C(=O)c3cc(C(F)(F)F)cc(C(F)(F)F)c3)CC2)O1 (racemic) [Example 4, (5RS)-9-(3,5-bis-trifluoromethyl-benzoyl)-5-phenyl-1-oxa-3,9-diaza-spiro[5.5]undecan-2-one]	8.29
O=C1NCC(c2cccc(F)c2F)C2(CCN(C(=O)c3cc(C(F)(F)F)cc(C(F)(F)F)c3)CC2)O1 (racemic) [Example 5, (5RS)-9-(3,5-bis-trifluoromethyl-benzoyl)-5-(2,3-difluoro-phenyl)-1-oxa-3,9-diaza-spiro[5.5]undecan-2-one]	8.07
O=C1NCC(c2cc(F)ccc2F)C2(CCN(C(=O)c3cc(C(F)(F)F)cc(C(F)(F)F)c3)CC2)O1 (racemic) [Example 6, (5RS)-9-(3,5-bis-trifluoromethyl-benzoyl)-5-(2,5-difluoro-phenyl)-1-oxa-3,9-diaza-spiro[5.5]undecan-2-one]	8.01
Cc1ccccc1C1CNC(=O)OC12CCN(C(=O)c1cc(C(F)(F)F)cc(C(F)(F)F)c1)CC2 (racemic) [Example 7, (5RS)-9-(3,5-bis-trifluoromethyl-benzoyl)-5-o-tolyl-1-oxa-3,9-diaza-spiro[5.5]undecan-2-one]	7.97
O=C1NCC(c2ccc(Cl)cc2)C2(CCN(C(=O)c3cc(C(F)(F)F)cc(C(F)(F)F)c3)CC2)O1 (racemic) [Example 8, (5RS)-9-(3,5-bis-trifluoromethyl-benzoyl)-5-(4-chloro-phenyl)-1-oxa-3,9-diaza-spiro[5.5]undecan-2-one]	7.96
Cc1ccc(C2CNC(=O)OC23CCN(C(=O)c2cc(C(F)(F)F)cc(C(F)(F)F)c2)CC3)cc1C (racemic) [Example 9, (5RS)-9-(3,5-bis-trifluoromethyl-benzoyl)-5-(3,4-dimethyl-phenyl)-1-oxa-3,9-diaza-spiro[5.5]undecan-2-one]	7.90
COc1cccc(C2CNC(=O)OC23CCN(C(=O)c2cc(C(F)(F)F)cc(C(F)(F)F)c2)CC3)c1 (racemic) [Example 10, (5RS)-9-(3,5-bis-trifluoromethyl-benzoyl)-5-(3-methoxy-phenyl)-1-oxa-3,9-diaza-spiro[5.5]undecan-2-one]	7.83
O=C1NCC(c2ccccc2Cl)C2(CCN(C(=O)c3cc(C(F)(F)F)cc(C(F)(F)F)c3)CC2)O1 (racemic) [Example 11, (5RS)-9-(3,5-bis-trifluoromethyl-benzoyl)-5-(2-chloro-phenyl)-1-oxa-3,9-diaza-spiro[5.5]undecan-2-one]	7.63
CN1CCC(N2CC(c3ccccc3)C3(CCN(C(=O)c4cc(C(F)(F)F)cc(C(F)(F)F)c4)CC3)OC2=O)CC1 (racemic) [Example 12, (5RS)-9-(3,5-bis-trifluoromethyl-benzoyl)-3-(1-methyl-piperidin-4-yl)-5-phenyl-1-oxa-3,9-diaza-spiro[5.5]undecan-2-one]	8.41
O=C(c1cc(C(F)(F)F)cc(C(F)(F)F)c1)N1CCC2(CC1)OC(=O)N(C1CCOCC1)CC2c1ccccc1 (racemic) [Example 13, (5RS)-9-(3,5-bis-trifluoromethyl-benzoyl)-5-phenyl-3-(tetrahydro-pyran-4-yl)-1-oxa-3,9-diaza-spiro[5.5]undecan-2-one]	7.72
CN(C)C(=O)CN1CC(c2ccccc2)C2(CCN(C(=O)c3cc(C(F)(F)F)cc(C(F)(F)F)c3)CC2)OC1=O (racemic) [Example 14, (5RS)-2-[9-(3,5-bis-trifluoromethyl-benzoyl)-2-oxo-5-phenyl-1-oxa-3,9-diaza-spiro[5.5]undec-3-yl]-N,N-dimethyl-acetamide]	8.18
O=C1OC2(CCN(C(=O)c3cc(C(F)(F)F)cc(C(F)(F)F)c3)CC2)C(c2ccc(F)c(F)c2)CN1CC(F)F (racemic) [Example 15, (5RS)-9-(3,5-bis-trifluoromethyl-benzoyl)-3-(2,2-difluoro-ethyl)-5-(3,4-difluoro-phenyl)-1-oxa-3,9-diaza-spiro[5.5]undecan-2-one]	7.94
O=C1OC2(CCN(C(=O)c3cc(C(F)(F)F)cc(C(F)(F)F)c3)CC2)C(c2ccccc2)CN1Cc1cccnc1 (racemic) [Example 16, (5RS)-9-(3,5-bis-trifluoromethyl-benzoyl)-5-phenyl-3-pyridin-3-ylmethyl-1-oxa-3,9-diaza-spiro[5.5]undecan-2-one]	8.21
CN1CC(c2ccccc2)C2(CCN(C(=O)c3cc(C(F)(F)F)cc(C(F)(F)F)c3)CC2)OC1=O (racemic) [Example 18, (5RS)-9-(3,5-bis-trifluoromethyl-benzoyl)-3-methyl-5-phenyl-1-oxa-3,9-diaza-spiro[5.5]undecan-2-one]	7.81
COCCN1CC(c2ccc(F)c(F)c2)C2(CCN(C(=O)c3cc(C(F)(F)F)cc(C(F)(F)F)c3)CC2)OC1=O (racemic) [Example 19, (5RS)-9-(3,5-bis-trifluoromethyl-benzoyl)-5-(3,4-difluoro-phenyl)-3-(2-methoxy-ethyl)-1-oxa-3,9-diaza-spiro[5.5]undecan-2-one]	7.72
CN1CC(c2ccc(F)c(F)c2)C2(CCN(C(=O)c3cc(C(F)(F)F)cc(C(F)(F)F)c3)CC2)OC1=O (racemic) [Example 20, (5RS)-9-(3,5-bis-trifluoromethyl-benzoyl)-5-(3,4-difluoro-phenyl)-3-methyl-1-oxa-3,9-diaza-spiro[5.5]undecan-2-one]	7.51
O=C1OC2(CCN(C(=O)c3cc(C(F)(F)F)cc(C(F)(F)F)c3)CC2)C(c2ccccc2)CN1CCCO (racemic) [Example 21, (5RS)-9-(3,5-bis-trifluoromethyl-benzoyl)-3-(3-hydroxy-propyl)-5-phenyl-1-oxa-3,9-diaza-spiro[5.5]undecan-2-one]	8.17
O=C1OC2(CCN(C(=O)c3cc(C(F)(F)F)cc(C(F)(F)F)c3)CC2)C(c2ccccc2)CN1CCO (racemic) [Example 22, (5RS)-9-(3,5-bis-trifluoromethyl-benzoyl)-3-(2-hydroxy-ethyl)-5-phenyl-1-oxa-3,9-diaza-spiro[5.5]undecan-2-one]	7.80
O=C1OC2(CCN(C(=O)c3cc(C(F)(F)F)cc(C(F)(F)F)c3)CC2)C(c2ccccc2)CN1CCCN1CCCC1 (racemic) [Example 23, (5RS)-9-(3,5-bis-trifluoromethyl-benzoyl)-5-phenyl-3-(3-pyrrolidin-1-yl-propyl)-1-oxa-3,9-diaza-spiro[5.5]undecan-2-one]	8.47
O=C1OC2(CCN(C(=O)c3cc(C(F)(F)F)cc(C(F)(F)F)c3)CC2)C(c2ccccc2)CN1CCCN1CCOCC1 (racemic) [Example 24, (5RS)-9-(3,5-bis-trifluoromethyl-benzoyl)-3-(3-morpholin-4-yl-propyl)-5-phenyl-1-oxa-3,9-diaza-spiro[5.5]undecan-2-one]	8.46
O=C1OC2(CCN(C(=O)c3cc(C(F)(F)F)cc(C(F)(F)F)c3)CC2)C(c2ccccc2)CN1CCCN1CCC(O)C1 (racemic) [Example 26, (5RS)-9-(3,5-bis-trifluoromethyl-benzoyl)-3-[3-(3-hydroxy-pyrrolidin-1-yl)-propyl]-5-phenyl-1-oxa-3,9-diaza-spiro[5.5]undecan-2-one]	8.39
CN(C)CCN1CC(c2ccccc2)C2(CCN(C(=O)c3cc(C(F)(F)F)cc(C(F)(F)F)c3)CC2)OC1=O (racemic) [Example 28, (5RS)-9-(3,5-bis-trifluoromethyl-benzoyl)-3-(2-dimethylamino-ethyl)-5-phenyl-1-oxa-3,9-diaza-spiro[5.5]undecan-2-one hydrochloride]	8.13
CN1CCN(CCCN2CC(c3ccccc3)C3(CCN(C(=O)c4cc(C(F)(F)F)cc(C(F)(F)F)c4)CC3)OC2=O)CC1 (racemic) [Example 29, (5RS)-9-(3,5-bis-trifluoromethyl-benzoyl)-3-[3-(4-methyl-piperazin-1-yl)-propyl]-5-phenyl-1-oxa-3,9-diaza-spiro[5.5]undecan-2-one]	7.98
O=C1OC2(CCN(C(=O)c3cc(C(F)(F)F)cc(C(F)(F)F)c3)CC2)C(c2ccccc2)CN1CCN1CCCC1 (racemic) [Example 30, (5RS)-9-(3,5-bis-trifluoromethyl-benzoyl)-5-phenyl-3-(2-pyrrolidin-1-yl-ethyl)-1-oxa-3,9-diaza-spiro[5.5]undecan-2-one; hydrochloride]	7.94
COc1nc(OC)nc(N2CC(c3ccccc3)C3(CCN(C(=O)c4cc(C(F)(F)F)cc(C(F)(F)F)c4)CC3)OC2=O)n1 (stereo not drawn) [Example 17, (5RS)-9-(3,5-bis-trifluoromethyl-benzoyl)-3-(4,6-dimethoxy-[1,3,5]triazin-2-yl)-5-phenyl-oxa-1-3,9-diaza-spiro[5.5]undecan-2-one]	7.88
